In BindingDB's records for PubMed 38373290 (University of the Republic (UdelaR)):

Molecular target: Metallo-beta-lactamase type 2 (Klebsiella pneumoniae, UniProt C7C422)
Experiment: Inhibition of his6-tagged NDM-1 (unknown origin) expressed in Escherichia coli BL21-DE3 incubated for 16 hrs

Chain of Metallo-beta-lactamase type 2 (C7C422 whole entry): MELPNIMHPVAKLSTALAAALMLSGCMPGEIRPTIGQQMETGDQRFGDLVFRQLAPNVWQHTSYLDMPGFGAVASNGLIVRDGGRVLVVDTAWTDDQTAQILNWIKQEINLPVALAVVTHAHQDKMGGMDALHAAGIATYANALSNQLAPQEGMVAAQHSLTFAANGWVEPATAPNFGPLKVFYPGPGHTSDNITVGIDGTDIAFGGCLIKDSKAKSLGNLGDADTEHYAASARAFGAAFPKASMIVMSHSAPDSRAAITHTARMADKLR

Work on `SC[C@H]1SC[C@@H]2Nc3ccccc3N21` yielded an IC50 of 770 nM.
